According to article PMC6389703, “Identification of Biologically Active Ganoderma lucidum Compounds and Synthesis of Improved Derivatives That Confer Anti-cancer Activities in vitro” (Frontiers in Pharmacology, 2019):
Read-outs that look alike come from different tables or passages of the source.

Experiments:
SUM-149 cells [1] = assay: Cell viability assay, SUM-149; assay type: cell-based, human; conditions: for EC50: Homo sapiens, read-out: EC50, SUM-149 cell viability
Protocol: Either 1 × 10^3–4.8 × 10^3 or 4 × 10^2–1.2 × 10^3 cells were seeded to each well of 96- or 384-well white polystyrene flat-bottomed plates (3610 or 8804BC, Corning) in 100 μL or 30 μL media per well, respectively. The concentrations used were experimentally determined to ensure logarithmic growth during the duration of the experiment and prevent adverse effects on cell growth by DMSO exposure. The plates were incubated at 37°C in 5% CO2 for 24 h before treatment. Stock solutions of test compounds (10 mM in DMSO) in nine 3-fold serial dilutions were dispensed via pintool (Biomek). The final concentration of DMSO was 0.3% (v/v) in each well. The plates were incubated for 72 h at 37°C in 5% CO2 and then quenched with CellTiter-Glo® reagent (50 μL/well in 96-well plate, 30 μL/well in 384-well plate) at RT. The positive controls included staurosporine (10 μM), gambogic acid (10 μM), and a toxic quinoline generated in-house. Plates were then incubated at RT for 20 min and centrifuged at 1000 rpm for 1 min. The cytotoxicity assay was performed by using the CellTiter-Glo® Luminescent Cell Viability Assay kit (G7570, Promega, Madison, WI, United States) according to the manufacturer’s instructions. Luminescence was recorded in an Envision plate reader (PerkinElmer).
(§1) Cell viability assays (MTT or PI staining assays) in SUM-149, SUM-190, MDA-MB-231, and MCF10A cells were performed as we previously described ([Suarez-Arroyo et al., 2016]).
(§2) For the CTG assay, 3 or 4 replicate assays were conducted for each experimental condition, and a minimum of 3 independent experiments were conducted for cellular assays. The mean luminescence of each experimental treatment group was normalized as a percentage of the mean intensity of untreated controls. EC50 values (μM) were calculated by Pipeline Pilot Software (Accelrys, Enterprise Platform, San Diego, CA, United States). EC50 values (μM) from the viability assay were calculated from dose response curve-fitting via non-linear regression by using GraphPad Prism (Version 7.0, San Diego, CA, United States). For cell viability, colony formation, cell-cycle progression, cell death, and western blot assays, the analyses were performed via one-way or two-way ANOVA with post-testing for each condition (concentration, cell cycle stage, apoptotic event, cell line) by using GraphPad Prism.

MCF10A cells = assay: cells; assay type: cell-based
Protocol: as §1, §2

KOPN-8 cells = assay: Cell Titer Glo viability assay, KOPN-8; assay type: cell-based; conditions: Homo sapiens, 72-h treatment
Protocol: (§3) Either 1 × 10^3–4.8 × 10^3 or 4 × 10^2–1.2 × 10^3 cells were seeded to each well of 96- or 384-well white polystyrene flat-bottomed plates (3610 or 8804BC, Corning) in 100 μL or 30 μL media per well, respectively. The concentrations used were experimentally determined to ensure logarithmic growth during the duration of the experiment and prevent adverse effects on cell growth by DMSO exposure. The plates were incubated at 37°C in 5% CO2 for 24 h before treatment. Stock solutions of test compounds (10 mM in DMSO) in nine 3-fold serial dilutions were dispensed via pintool (Biomek). The final concentration of DMSO was 0.3% (v/v) in each well. […] Luminescence was recorded in an Envision plate reader (PerkinElmer).
as §2, with “For cell viability, colony formation, cell-cycle progression, cell death, and western blot assays, the analyses were performed via one-way or two-way ANOVA with post-testing for each condition (concentration, cell cycle stage, apoptotic event, cell line) by using GraphPad Prism.” left out

[2] = system: additional cancer cellular models; assay: Cell viability, additional cancer cellular models; assay type: cell-based; conditions: Supplementary Figure S2
Protocol: as §3
as §2, with “For cell viability, colony formation, cell-cycle progression, cell death, and western blot assays, the analyses were performed via one-way or two-way ANOVA with post-testing for each condition (concentration, cell cycle stage, apoptotic event, cell line) by using GraphPad Prism.” left out

SUM-149 cells [3] = assay: Cell cycle assay (PI, flow cytometry); assay type: cell-based, human; conditions: 48 h
Protocol: SUM-149 cells were treated for 48 h with EP, then collected and washed in 1X PBS. The cells (5 × 10^5) were fixed and permeabilized in 70% ethanol at -20°C until further analysis. To measure the DNA content, the cells were washed and resuspended in 150 μL of PBS buffer then incubated in 100 μL of 100 μg/mL RNase A (MilliporeSigma, Burlington, MA, United States) for 15 min at RT, then 250 μL of 50 μg/mL Propidium Iodide (MilliporeSigma) was added. Samples were incubated at RT for 10 min and analyzed on a BD FACS Canto II flow cytometer (BD Biosciences, San José, CA, United States). Data were analyzed by using FlowJo software (V10, FlowJo, LLC, Ashland, OR, United States).

MDA-MB-231 cells = assay: ApoTox-Glo Triplex assay, MDA-MB-231; assay type: cell-based, human
Protocol: Cells (9.5 × 10^4/well in 75 μL of fresh medium) were dispensed in 96-well black flat bottom (8807BC, Corning) plates. The cells were incubated for 12 h at 37°C and then treated with compounds (25 μL) for 24 h. DMSO was used as a negative control, and staurosporine was used as the positive control. […] Then, the Caspase-Glo® 3/7 Reagent was added; plates were mixed briefly by orbital shaking (300-500 rpm for ∼30 s), followed by an additional 30 min incubation at RT. Then luminescence, which correlates with caspase 3/7 activation, was recorded with a plate reader to […] apoptosis induction.

MCF-7 cells = assay: ROS measurement (CellROX green), MCF-7; assay type: cell-based, human
Protocol: SUM-149 or MDA-MB-231 were plated in 96-well plates at a density of 2 × 10^4 and 1 × 10^4 cells/well, respectively, in black 96-well clear bottom tissue culture plates and incubated for 24 h at 37°C. The mRuby-Mito-7 plasmid was obtained from Addgene (#55874 from Michael Davidson). A stable clone of MCF-7 was generated by using Fugene 6 (Roche) to transfect cells (2 × 10^5) with plasmid (2.0 μg) under neomycin selection. A stable cell line was selected by using G418 (300 μg/mL) for 2 weeks, sorted by flow cytometry, and maintained under G418 thereafter. Transfected MCF-7 cells were plated at a density of 2 × 10^4 cells/well in black 96-well clear bottom tissue culture plates and incubated overnight at 37°C. To test for ROS formation and remove background, cells were replenished with fresh PBS with 2% FBS and treated with the desired compounds for 1 h at 37°C. DMSO (0.5%) was used as a negative control, while Menadione (Mena, at 10 μM) or t-Butyl hydroperoxide (TBHP) at 100 μM final concentration were used as a positive control. To evaluate the compounds’ effects on ROS formation inhibition, the free radical scavenger N-acetyl cysteine (NAC) was used. Cells were treated with or without NAC (500 μM or 100 μM) for 1 h, then CellROX® green reagent (Molecular Probes #C10444) was added to a final concentration of 5 μM, and cells were incubated for an additional 30 min at 37°C. Cells were then washed 2× with PBS, followed by fixation with 4% paraformaldehyde (v/v) for 15 min, and 2 more washes with PBS. Fluorescence intensity was measured in a Clariostar® plate reader (BMG LABTECH, Cary, NC, United States) at 535 nm.

[4] = Solubility in DMSO or water; conditions: unless warmed up to 30°C

**Q.** With CC(C)[C@@H](C)/C=C/[C@@H](C)[C@H]1CC[C@@H]2[C@]1(C)CC[C@H]1[C@]23C=C[C@]2(C[C@@H](O)CC[C@]12C)OO3 [EP, ergosterol peroxide] as the compound, how does the “concentration at which SUM-149 cell viability is significantly reduced” value (SUM-149 cells [1]; 72 h) read?
**A.** 8 µM

**Q.** And the EC50 (SUM-149 cells [1]; SUM149, 24 h)?
**A.** 34 µM

**Q.** And the EC50 (SUM-149 cells [1]; SUM149, 72 h)?
**A.** 20 µM

**Q.** What about the “cytotoxicity in MCF10A non-cancerous mammary epithelial cells” value (MCF10A cells) of the same compound?
**A.** did not induce cytotoxicity

**Q.** And the EC50 (MCF10A cells; Homo sapiens, MCF-10A, PI staining, 72-h treatment)?
**A.** > 100 µM

**Q.** And the EC50 (KOPN-8 cells)?
**A.** 22.4 µM

**Q.** And the EC50 [2]?
**A.** 7 to 22 µM

**Q.** And the “percentage of cells in G0” value (SUM-149 cells [3]; 20μM)?
**A.** 1.7%

**Q.** And the “percentage of cells in G1” value (SUM-149 cells [3]; 20μM)?
**A.** 81%

**Q.** What about the “percentage of cells in G2/M” value (SUM-149 cells [3]; 20μM) of the same compound?
**A.** 9.8%

**Q.** What about the “percentage of cells in S” value (SUM-149 cells [3]; 20μM) of the same compound?
**A.** 5.4%

**Q.** And the “increase in percentage of cells in G1 phase” value (SUM-149 cells [3]; vs vehicle)?
**A.** ~20%

**Q.** And the “reduction of the percentage of cells in G2/M” value (SUM-149 cells [3]; vs vehicle)?
**A.** ~10%

**Q.** And the “cytotoxicity by membrane integrity” value (MDA-MB-231 cells; MDA-MB-231)?
**A.** increased cytotoxicity

**Q.** What about the “caspase 3/7 activity” value (MDA-MB-231 cells; MDA-MB-231, 24 h) of the same compound?
**A.** increase caspase 3/7 activity

**Q.** What about the “viability (GF-AFC)” value (MDA-MB-231 cells; MDA-MB-231, 24 h) of the same compound?
**A.** decrease viability

**Q.** And the “ROS increase (fold)” value (MCF-7 cells; GA-01, ergosterol, 5,6-dehydroergosterol 50 µM, EP 20 µM)?
**A.** at least a twofold

**Q.** What about the “ROS formation reduction when co-treated with NAC” value (MCF-7 cells; NAC 100 µM, TBHP 100 µM) of the same compound?
**A.** 9–25%

**Q.** And the “solubility properties in DMSO or water” value [4]?
**A.** poor
